Source: patent publication US20260355196A1, “INHIBITORS AND DEGRADERS OF PIP4K PROTEIN” (Larkspur Biosciences, Inc., priority 2023, published 2026)

These molecules were tested against T1, PIP4K2C (Homo sapiens, UniProt Q8TBX8) (assay: HiBiT PIP4K2C degradation assay in MOLT-4 cells (endogenous PIP4K2C C-terminally tagged with HiBiT)). Details: 6 hours of incubation time, rather than 24 hours; MOLT-4, top concentration 10 micromolar; read-out: HiBIT-degradation MOLT4 PIP4k2C DC50 (6 hours, marked *).
T1 sequence (Q8TBX8 1-421): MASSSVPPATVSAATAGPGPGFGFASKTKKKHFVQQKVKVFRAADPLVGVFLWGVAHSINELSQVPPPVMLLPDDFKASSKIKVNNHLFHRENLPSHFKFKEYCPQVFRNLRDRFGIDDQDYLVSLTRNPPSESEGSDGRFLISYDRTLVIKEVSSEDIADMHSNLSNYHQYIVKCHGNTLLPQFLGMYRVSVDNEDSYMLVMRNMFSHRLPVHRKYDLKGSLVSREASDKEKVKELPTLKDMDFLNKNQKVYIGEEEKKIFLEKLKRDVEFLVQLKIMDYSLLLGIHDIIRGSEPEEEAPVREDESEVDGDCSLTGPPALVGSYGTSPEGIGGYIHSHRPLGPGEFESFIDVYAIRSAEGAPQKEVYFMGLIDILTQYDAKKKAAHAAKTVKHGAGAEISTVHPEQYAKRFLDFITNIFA
Format: cell-based
Parameters: untagged in primary human PBMCs and monocyte-derived dendritic cells
Method in brief: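 Endogenous PIP4K2C was C-terminally HiBiT-tagged by CRISPR-Cas9 in MOLT-4 cells, which were treated with a 10-point, 3-fold dilution series from 10 micromolar in duplicate for 24 or 6 hours at 37 C. Remaining protein was read by HiBiT lytic luminescence, and DC50 came from a Hill fit.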

DC50, < 500 nM:
O=C1CCC(Nc2ccc(N3CCC(N4CCC(NC(=O)[C@H]5CC[C@H](Nc6ncc(F)c(-c7cccc(N8CCCCC8=O)c7)n6)CC5)CC4)C(F)(F)C3)c(F)c2)C(=O)N1 (stereo partly drawn) [Compound 494, trans-N-(1′-(4-((2,6-dioxopiperidin-3-yl)amino)-2-fluorophenyl)-3′,3′-difluoro-[1,4′-bipiperidin]-4-yl)-4-((5-fluoro-4-(3-(2-oxopiperidin-1-yl)phenyl)pyrimidin-2-yl)amino)cyclohexane-1-carboxamide]
O=C1CCC(Nc2ccc(N3CCC(N4CCC(NC(=O)[C@H]5CC[C@H](Nc6ncc(F)c(-c7cccc(N8CCCOC8=O)c7)n6)CC5)CC4)C(F)(F)C3)c(F)c2)C(=O)N1 (stereo partly drawn) [Compound 495, trans-N-(1′-(4-((2,6-dioxopiperidin-3-yl)amino)-2-fluorophenyl)-3′,3′-difluoro-[1,4′-bipiperidin]-4-yl)-4-((5-fluoro-4-(3-(2-oxo-1,3-oxazinan-3-yl)phenyl)pyrimidin-2-yl)amino)cyclohexane-1-carboxamide]
O=C1CCC(Nc2ccc(N3CCC(N4CCC(NC(=O)[C@H]5CC[C@H](Nc6ncc(F)c(-c7cccc(N8CCOCC8=O)c7)n6)CC5)CC4)C(F)(F)C3)c(F)c2)C(=O)N1 (stereo partly drawn) [Compound 496, trans-N-(1′-(4-((2,6-dioxopiperidin-3-yl)amino)-2-fluorophenyl)-3′,3′-difluoro-[1,4′-bipiperidin]-4-yl)-4-((5-fluoro-4-(3-(3-oxomorpholino)phenyl)pyrimidin-2-yl)amino)cyclohexane-1-carboxamide]
O=C1CCC(Nc2ccc(N3CCC(N4CCC(C(=O)N[C@H]5CC[C@H](Nc6ncc(F)c(-c7cccc(C8CC8)c7)n6)CC5)CC4)C(F)(F)C3)c(F)c2)C(=O)N1 (stereo partly drawn) [Compound 497, trans-N-(4-((4-(3-cyclopropylphenyl)-5-fluoropyrimidin-2-yl)amino)cyclohexyl)-1′-(4-((2,6-dioxopiperidin-3-yl)amino)-2-fluorophenyl)-3′,3′-difluoro-[1,4′-bipiperidine]-4-carboxamide]
O=C1CCC(Nc2ccc(N3CCC(N4CCC(C(=O)N[C@H]5CC[C@H](Nc6ncc(F)c(-c7cccc(N8CCCCC8)c7)n6)CC5)CC4)C(F)(F)C3)c(F)c2)C(=O)N1 (stereo partly drawn) [Compound 498, trans-1′-(4-((2,6-dioxopiperidin-3-yl)amino)-2-fluorophenyl)-3′,3′-difluoro-N-(4-((5-fluoro-4-(3-(piperidin-1-yl)phenyl)pyrimidin-2-yl)amino)cyclohexyl)-[1,4′-bipiperidine]-4-carboxamide]
O=C1CCC(Nc2ccc(N3CCC(N4CCC(C(=O)N[C@H]5CC[C@H](Nc6ncc(F)c(-c7cccc(N8CCCCC8=O)c7)n6)CC5)CC4)C(F)(F)C3)c(F)c2)C(=O)N1 (stereo partly drawn) [Compound 499, trans-1′-(4-((2,6-dioxopiperidin-3-yl)amino)-2-fluorophenyl)-3′,3′-difluoro-N-(4-((5-fluoro-4-(3-(2-oxopiperidin-1-yl)phenyl)pyrimidin-2-yl)amino)cyclohexyl)-[1,4′-bipiperidine]-4-carboxamide]
O=C1CCC(Nc2ccc(N3CCC(N4CCC(C(=O)N[C@H]5CC[C@H](Nc6ncc(F)c(-c7cccc(N8CCCOC8=O)c7)n6)CC5)CC4)C(F)(F)C3)c(F)c2)C(=O)N1 (stereo partly drawn) [Compound 500, trans-1′-(4-((2,6-dioxopiperidin-3-yl)amino)-2-fluorophenyl)-3′,3′-difluoro-N-(4-((5-fluoro-4-(3-(2-oxo-1,3-oxazinan-3-yl)phenyl)pyrimidin-2-yl)amino)cyclohexyl)-[1,4′-bipiperidine]-4-carboxamide]
O=C1CCC(Nc2ccc(N3CCC(N4CCC(C(=O)N[C@H]5CC[C@H](Nc6ncc(F)c(-c7cccc(N8CCOCC8=O)c7)n6)CC5)CC4)C(F)(F)C3)c(F)c2)C(=O)N1 (stereo partly drawn) [Compound 501, trans-1′-(4-((2,6-dioxopiperidin-3-yl)amino)-2-fluorophenyl)-3′,3′-difluoro-N-(4-((5-fluoro-4-(3-(3-oxomorpholino)phenyl)pyrimidin-2-yl)amino)cyclohexyl)-[1,4′-bipiperidine]-4-carboxamide]
O=C1CCC(Nc2ccc(N3CCC(N4CCC(C(=O)N[C@H]5CC[C@H](Nc6ncc(F)c(-c7cccc(C8CC8)c7)n6)CC5)CC4)C(F)C3)c(F)c2)C(=O)N1 (some centres unmarked) [Compound 502, N-((1r,4r)-4-((4-(3-cyclopropylphenyl)-5-fluoropyrimidin-2-yl)amino)cyclohexyl)-1′-(4-((2,6-dioxopiperidin-3-yl)amino)-2-fluorophenyl)-3′-fluoro-[1,4′-bipiperidine]-4-carboxamide]
O=C1CCC(Nc2ccc(C3CCN([C@H]4CC[C@H](NC(=O)[C@H]5CC[C@H](Nc6ncc(F)c(-c7cccc(C8CC8)c7)n6)CC5)CC4)CC3)c(F)c2)C(=O)N1 (stereo partly drawn) [Compound 503, trans-4-((4-(3-cyclopropylphenyl)-5-fluoropyrimidin-2-yl)amino)-N-(trans-4-(4-(4-((2,6-dioxopiperidin-3-yl)amino)-2-fluorophenyl)piperidin-1-yl)cyclohexyl)cyclohexane-1-carboxamide]
O=C1CCC(Nc2ccc(N3CCC(N4CCC(C(=O)N[C@H]5CC[C@H](Nc6ncc(F)c(-c7cccc(C8CC8)c7)n6)CC5)CC4)CC3)c(F)c2)C(=O)N1 (stereo partly drawn) [Compound 504, trans-N-(4-((4-(3-cyclopropylphenyl)-5-fluoropyrimidin-2-yl)amino)cyclohexyl)-1′-(4-((2,6-dioxopiperidin-3-yl)amino)-2-fluorophenyl)-[1,4′-bipiperidine]-4-carboxamide]
Cn1nc(C2CCC(=O)NC2=O)c2ccc(N3CCN(CCN4CCC(C(=O)N[C@H]5CC[C@H](Nc6ncc(F)c(-c7cccc(-n8ccccc8=O)c7)n6)CC5)CC4)CC3)cc21 (stereo partly drawn) [Compound 506, trans-1-(2-(4-(3-(2,6-dioxopiperidin-3-yl)-1-methyl-1H-indazol-6-yl)piperazin-1-yl)ethyl)-N-((1r,4r)-4-((5-fluoro-4-(3-(2-oxopyridin-1(2H)-yl)phenyl)pyrimidin-2-yl)amino)cyclohexyl)piperidine-4-carboxamide]
Cn1nc(C2CCC(=O)NC2=O)c2ccc(C3CCN([C@H]4CC[C@H](CC(=O)N[C@H]5CC[C@H](Nc6ncc(F)c(-c7cccc(-n8ccccc8=O)c7)n6)CC5)CC4)CC3)cc21 (stereo partly drawn) [Compound 507, trans-2-((1r,4R)-4-(4-(3-(2,6-dioxopiperidin-3-yl)-1-methyl-1H-indazol-6-yl)piperidin-1-yl)cyclohexyl)-N-((1r,4R)-4-((5-fluoro-4-(3-(2-oxopyridin-1(2H)-yl)phenyl)pyrimidin-2-yl)amino)cyclohexyl)acetamide]
O=C1CCC(Nc2ccc(N3CCN([C@H]4CC[C@H](NC(=O)[C@H]5CC[C@H](Nc6ncc(F)c(-c7cccc(N8CCOCC8=O)c7)n6)CC5)CC4)CC3)c(F)c2)C(=O)N1 (stereo partly drawn) [Compound 508, trans-N-(trans-4-(4-(4-((2,6-dioxopiperidin-3-yl)amino)-2-fluorophenyl)piperazin-1-yl)cyclohexyl)-4-((5-fluoro-4-(3-(3-oxomorpholino)phenyl)pyrimidin-2-yl)amino)cyclohexane-1-carboxamide]
